The melting point is the temperature of the solid-liquid transition.

In data set [1] the test system is human prostate cancer cells (PC3). The data set can be described thus: Cytotoxicity by SRB assay, PC3 cells. In kind it is cell-based. To be noted: 72 h, 0.01 μM to 100 μM. The protocol:
(§1) The human prostate cancer cells (PC3) and human osteosarcoma cells (MG-63) were obtained from Nawah Scientific Inc. (Mokatam, Cairo, Egypt) and cultured in DMEM (Dulbecco's modified eagle's medium), Gibco, USA, supplemented with fetal bovine serum (FBS) at a concentration of 10% and 100 U/mL of penicillin and streptomycin (PS). The Cells were incubated at 37° C. in a humidified environment that contained 5% CO2.
(§2) Cells were seeded in 96-well plates as aliquots of 100 μL cell suspension and incubated in a complete media for 24 h. Afterward, cells were treated with 2-(1-(2-hydroxypropyl)-4,5-diphenyl-1H-imidazol-2-yl)pyridine at diverse concentrations ranging from 0.01 μM to 100 μM for 72 h. Then, cells were fixed at 4° C. for one hour with 150 μL of 10% trichloroacetic acid (TCA). After washing the cells five times with distilled water, 70 μL of sulforhodamine (SRB) solution (0.4% w/v) was added and incubated for 10 min at room temperature in a dark place. […] Then, 150 μL of Tris pH 10.5 (10 mM) was added, and the absorbance was measured at 540 nm using a BMG LABTECH®-FLUOstar Omega microplate reader (Ortenberg, Germany). Half maximal inhibitory concentrations (IC50) values were calculated for each experiment using GraphPad Prism 6 software. […]
(§3) The inhibition was calculated using the following equation: Inhibition %=100−Average Viability

The subject of data set [2] is human osteosarcoma cells (MG-63). Description: Cytotoxicity by SRB assay, MG-63 cells. In kind it is cell-based. The conditions noted are these: 72 h, 0.01 μM to 100 μM. The protocol:
as §1, §2, §3
A general note: Sulforhodamine B stains cellular protein and so reports cell mass.

On to `CN(C)CCCn1c(-c2cccnc2)nc(-c2ccccc2)c1-c1ccccc1` [3-(4,5-Diphenyl-2-(pyridin-3-yl)-1H-imidazol-1-yl)-N,N-dimethylpropan-1-amine], for which the melting point lay in the range of 145 to 147 °C. Moreover, the antiproliferative activity result in data set [1] is given as “excellent antiproliferative activities”. The antiproliferative activity result in data set [2] is reported as “excellent antiproliferative activities”.

The values above are taken from patent publication US11981655B1, “3-(4,5-diphenyl-2-(pyridin-3-yl)-1H-imidazol-1-yl)-N,N-dimethylpropan-1-amine as an anticancer compound” (KING FAISAL UNIVERSITY, priority 2023, dated 2024).
